# Reference: patent US8350062B2, “Synthesis and anticancer activity of new actin-targeting small-molecule agents” (priority 2009, dated 2013)
# Tests used:
# [1] = tested on: 60 different human tumor cell lines; assay: NCI 60 cell line single dose screen, whole panel; format: cell-based; details: 10 micromolar, mean over cell lines
# Source text: Analog 10 was screened utilizing 60 different human tumor cell lines, representing leukemia, melanoma and cancers of the lung, colon, brain, ovary, breast, prostate, and kidney in order to show selective growth inhibition or cell killing of particular tumor cell lines. This screen is unique in that the complexity of a 60 cell line dose response produced by a given compound results in a biological response pattern which can be utilized in pattern recognition algorithms (COMPARE program. See: http://dtp.nci.nih.gov/docs/compare/compare.html). Using these algorithms, it is possible to assign a putative mechanism of action to a test compound, or to determine that the response pattern is unique and not similar to that of any of the standard prototype compounds included in the NCI database. […]
# Following drug addition, the plates are incubated for an additional 48 h at 37° C., 5% CO2, 95% air, and 100% relative humidity. […] Bound stain is subsequently solubilized with 10 mM trizma base, and the absorbance is read on an automated plate reader at a wavelength of 515 nm. […] Using the absorbance measurements [time zero, (Tz), control growth, (C), and test growth in the presence of drug (Ti)], the percentage growth is calculated.
# [2] = tested on: F-actin in A549 cells; assay: Fluorescent visualization of F-actin in A549 cells (Alexa Fluor 488 phalloidin); format: cell-based, human
# Protocol: The presence of the enone increased the severing efficiency of the analogs three-fold. […] We determined whether it was the depletion of actin filaments by analogs 2-5 which was responsible for the growth inhibition of A549 cells. Each of the compounds was incubated with A549 cells for 2 h at a concentration that exceeded the GI50 value by a factor of 5. The cells were then fixed, permeabilized and filamentous actin was visualized by fluorescence microscopy following Alexa Fluor 488 phalloidin staining. […] They induced depolymerization at 150 nM for bistramide A (1), 500 nM for analog 2 and 2 μM for analog 3. Analogs 4 and 5 induced depolymerization of actin only at concentrations as high as 100 μM. […] This observation was consistent with the enhanced cell-based activity of the compounds containing the C(1)-C(4) enone moiety.
# Fluorescent Visualization Of F-Actin In Cells. A549 cells grown on coverslips were incubated with analogs 4-8 (100 μM) analog 3 (2 μM) or analog 2 (500 nM) or bistramide A (150 nM) in F-12K cell culture medium for 2 h, fixed with 3% formaldehyde in PBS at 25° C. for 5 min and permeabilized with 0.1% Triton X-100 at 25° C. for 10 min. After washing with PBS, coverslips were stained with Alexa Fluor 488 Phalloidin and visualized by fluorescence microscopy.
# [3] = tested on: PC3 cells; assay: Growth of PC3 cells over 96 h; format: cell-based, human; details: same growth conditions
# Protocol: (§1) Cell Viability Assays. All assays were performed using at least three replicate wells for each concentration tested. Original 10-25 mM DMSO stock solution of bistramide A or its analogs was diluted to 100 μM for analogs 4-8, 10 μM for analog 3, 5 μM for analog 2 and 1 μM for bistramide A (1) with F-12K cell culture media supplemented with 10% fetal bovine serum, 100 I.U./ml penicillin, 100 μg/ml streptomycin and 2 mM L-glutamine. Two-fold serial dilutions were performed and used for cell-based assays. A549 cells were grown in 96-well white plates at the density of 1,000 cells per well in 100 μl F-12K cell culture media. Cells were allowed to attach over 24 h and treated with 30 μl of the drug solution and incubated further for 48 h. After incubation, cell viability was determined using luminescence-based commercial kit (CellTiter-Glo, Promega) and luminescence measured using a Wallac Victor 3 plate reader. To measure cell growth inhibition, viability assays were performed twice: at initial time point T0 and after 48 h incubation (T48). Change in the number of viable cells was measured, and GI50 was calculated from sigmoidal plots. For analog 10, growth of A549 and PC3 cells was monitored over 96 h following addition of the drug. 100 μM was the highest concentration tested. At no point did the total DMSO conc. exceed 1%.
# [4] = tested on: A549 cells; assay: Cell viability assay (CellTiter-Glo), growth inhibition of A549 cells; format: cell-based, human; details: 24-96 h
# Protocol: as §1
compound,measurement,setting,value
COCCC(=O)NC[C@H](O)[C@H](C)C(=O)NCCC[C@H]1O[C@@]2(CCC[C@@H](CC[C@H](C)/C=C(\C)[C@H](C)O)O2)CCC1C (some centres unmarked) [Analog 10],"Growth Percent, Mean",[1],50.03%
same,F-actin depolymerization in A549 cells,[2],depolymerized F-actin in A549 cells in a dose-dependent manner
same,concentration at which noticeable actin disassembly was detected,[2]; A549 cells,250 nM
same,sensitivity of PC3 cells compared with A549 cells,[3],substantially less sensitive
same,concentration giving complete growth inhibition,[4],5 µM
